Here are results for 6 compounds from US8057792B2, “Use of an antibody that blocks TNF-alpha activity for treating a nerve disorder mediated by nucleus pulposus” (Sciaticon AB, priority 1998, dated 2011).

In experiment [1] the test system is nucleus pulposus-induced nerve root injury. To be noted: previous publications; cited from earlier work.
Experiment [2] deals with pigs with autologous nucleus pulposus applied to the sacrococcygeal cauda equina. The experiment can be described thus: Example 6: nerve conduction velocity 3 days after application of nucleus pulposus mixed with inhibitors. To be noted: pig; inhibitor mixed with NP before application (100 µg antibody each, 2 mg doxycycline). It counts as in vivo. The protocol: Fourteen pigs, (body weight 25-30 kg) received an intramuscular injection of 20 mg/kg body weight of KETALAR® (ketamine 50 mg/ml, Parke-Davis, Morris Plains, N.J.) and an intravenous injection of 4 mg/kg body weight of HYPNODIL® (methomidate chloride 50 mg/ml, AB Leo, Helsingborg, Sweden) and 0.1 mg/kg body weight of STRESNIL® (azaperon 2 mg/ml, Janssen Pharmaceutica, Beerse, Belgium). Anesthesia was maintained by additional intravenous injections of 2 mg/kg body weight of HYPNODIL® and 0.05 mg/kg body weight of STRESNIL®. The pigs also received an intravenous injection of 0.1 mg/kg of STESOLID NOVUM® (Diazepam, Dumex, Helsingborg) after surgery.
Nucleus pulposus was harvested from the 5th lumbar disc through a retroperitoneal approach. […]
Three days after the application, the pigs were reanaesthetized by an intramuscular injection of 20 mg/kg body weight of KETALAR® and an intravenous injection of 35 mg/kg body weight of PENTOTHAL® (Thiopental sodium, Abbott lab, Chicago, Ill.). […] Local tissue temperature was continuously monitored and maintained at 37.538.0. degree. […]
The person performing the neurophysiologic analyzes was unaware of the experimental protocol for the individual animal, and after finishing the complete study the data were arranged in the three experimental groups and statistical differences between the groups were assessed by Student's t-test. […]

The test system of experiment [3] is pigs with autologous nucleus pulposus placed onto the sacrococcygeal cauda equina. Nature of the experiment: Series-3: nerve root conduction velocity 7 days after nucleus pulposus application, systemic TNF inhibitors. Type of experiment: in vivo, pig. The following applies: for Effect on nucleus pulposus induced nerve injury: 7 days, systemic treatment; for NCV (m/s +/− SD): pig, 7 days after NP application, infliximab 100 mg i.v. preoperatively, etanercept 12.5 mg s.c. twice. The protocol: Series-3: Thirteen pigs had autologous nucleus pulposus placed onto their sacrococcygeal cauda equina similar to series-2. Five pigs (body weight 25 kg) received REMICADE® (infliximab) 100 mg i.v. preoperatively, and 8 pigs received ENBREL® (etanercept) 12.5 mg s.c. preoperatively and additionally 12.5 mg s.c. three days after the operation. Seven days after the nucleus pulposus-application the nerve root conduction velocity was determined over the application zone by local electrical stimulation according to series-2. Thirteen pigs had autologous nucleus pulposus placed onto their sacrococcygeal cauda equina similar to series-2. Five pigs (bodyweight 25 kg) received the human/murine monoclonal antibody, REMICADE® (infliximab, […]) 100 mg i.v. preoperatively, and 8 pigs received ENBREL® (etanercept, Centocor B.V., Leiden, the Netherlands) 12.5 mg s.c. preoperatively and additionally 12.5 mg s.c. three days after the operation. Seven days after the nucleus pulposus-application the nerve root conduction velocity was determined over the application zone by local electrical stimulation according to series-2. […] No non-treated animals were included in the series-3 due to the pre-existing knowledge of nerve conduction velocity after seven days of either nucleus pulposus or fat (control) application. The statistical difference between the groups, infliximab, and etanercept, nucleus pulposus without treatment (positive control from previous data) and application of retroperitoneal fat (negative control from previous data) was assessed by using ANOVA and Fisher's PLSD at 5%.

For cyclosporin A, in experiment [1], the “Block of nucleus pulposus-related effects” value (from here on “Block”) was “blocked efficiently”. For `COc1ccc2c(c1)c(CC(=O)O)c(C)n2C(=O)c1ccc(Cl)cc1` [indomethacin], in experiment [1], the “Block” value is “slightly less efficiently”. For `C[C@H]1c2cccc(O)c2C(=O)C2=C(O)[C@]3(O)C(=O)C(C(N)=O)=C(O)[C@@H](N(C)C)[C@@H]3[C@@H](O)[C@@H]21` [Doxycycline, doxycycline], in experiment [2], the “Nerve conduction velocity (m/s) 3 days after application” value is reported as 53 +/− 22 m/s.

Turning to etanercept [ENBREL ®], in experiment [3], the “Effect on nucleus pulposus induced nerve injury” value was “blocked the nucleus pulposus induced nerve injury efficiently” and the “NCV (m/s +/− SD)” value is listed as 78 +/− 14 m/s. As for `CCN(CC)CC(=O)Nc1c(C)cccc1C` [lidocaine], the “Block” value in experiment [1] is given as “slightly less efficiently”. With infliximab [REMICADE ®], in experiment [3], the “Effect on nucleus pulposus induced nerve injury” value is “blocked the nucleus pulposus induced nerve injury efficiently” and the “NCV (m/s +/− SD)” value is 79 +/− 15 m/s.
